In brackets after ≈: the same amount, converted by molar mass.
Key:
Assay in all cases: MIC by micro broth dilution
Format in all cases: cell-based
S. aureus CCARM 3505 = details: Staphylococcus aureus, CCARM3505, read-out: Minimum inhibitory concentration (MIC)
Description: (§1) MIC of DART molecules were determined by micro broth dilution as per CLSI guidelines. Bacterial strains were cultured in Brain Heart Infusion Agar (BHIA) at 37° C. for 24 h. For MIC determination, BHI broth (100 μl) was added to each of the wells of a 96 well plate. 100 μl of broth containing drug was added to the first well (1A to 1H) and thereafter serial (double) dilutions were carried out for up to 10 wells (column 1 to column 10 of the 96 well plate). Bacterial inoculum was prepared by adjusting the bacterial culture turbidity to 0.5 McFarland standard (approximately 1.5×10^8 cells/ml) and further diluted (100 times with sterile BHI broth). Diluted bacterial suspension (100 μl) was added to each well except sterility control wells (column 12 of 96 well plate). The plates were incubated at 37° C. for 24 h. The MIC of the test compound was measured after addition of Alamar blue dye.

P. aeruginosa CCARM 2161 = details: Pseudomonas aeruginosa, CCARM2161, read-out: Minimum inhibitory concentration (MIC)
Description: as §1

A. baumannii CCARM 12020 = details: Acinetobacter baumannii, CCARM12020, read-out: Minimum inhibitory concentration (MIC)
Description: as §1

E. aerogenes NCIM 5139 = details: Klebsiella aerogenes, NCIM5139, read-out: Minimum inhibitory concentration (MIC)
Description: as §1

P. aeruginosa ATCC 27853 = details: Pseudomonas aeruginosa, ATCC27853, read-out: Minimum inhibitory concentration (MIC)
Description: as §1

S. aureus MTCC 6908 = details: Staphylococcus aureus, MTCC6908, read-out: Minimum inhibitory concentration (MIC)
Description: as §1

A. baumannii ATCC 1906 = details: Acinetobacter baumannii, ATCC1906, read-out: Minimum inhibitory concentration (MIC)
Description: as §1

A. baumannii CCARM 12001 = details: Acinetobacter baumannii, CCARM12001, read-out: Minimum inhibitory concentration (MIC)
Description: as §1

S. epidermidis S12-1 = details: Staphylococcus epidermidis, S121, read-out: Minimum inhibitory concentration (MIC)
Description: as §1

E. faecium NCIM 5421 = details: Enterococcus faecium, NCIM5421, read-out: Minimum inhibitory concentration (MIC)
Description: as §1

S. aureus ATCC 43300 = details: Staphylococcus aureus, ATCC43300; S. aureus ATCC 43300; read-out: Minimum inhibitory concentration (MIC)
Description: as §1

E. coli MTCC 1687 = details: Escherichia coli, MTCC1687, read-out: Minimum inhibitory concentration (MIC)
Description: as §1

P. aeruginosa CCARM 2204 = details: Pseudomonas aeruginosa, CCARM2204, read-out: Minimum inhibitory concentration (MIC)
Description: as §1

E. coli BAA 196 = details: Escherichia coli, BAA196, read-out: Minimum inhibitory concentration (MIC)
Description: as §1

[1] = test system: S. epidermidis ATCC 35984; details: Staphylococcus epidermidis, ATCC35984, read-out: Minimum inhibitory concentration (MIC)
Description: as §1

E. aerogenes M2-1 = details: Klebsiella aerogenes, M21, read-out: Minimum inhibitory concentration (MIC)
Description: as §1

K. pneumonia ATCC 13883 = details: for activity in words: Klebsiella pneumonia (susceptible); for MIC: Klebsiella pneumoniae, ATCC13883, K. pneumonia ATCC 13883, read-out: Minimum inhibitory concentration (MIC)
Description: as §1

E. faecium CCARM 5207 = details: Enterococcus faecium, CCARM5207, read-out: Minimum inhibitory concentration (MIC)
Description: as §1

E. fecalis CCARM 5168 = details: read-out: Minimum inhibitory concentration (MIC)
Description: as §1

MIC (S. aureus CCARM 3505) [µg/mL]	MIC (P. aeruginosa CCARM 2161) [µg/mL]	MIC (A. baumannii CCARM 12020) [µg/mL]	MIC (E. aerogenes NCIM 5139) [µg/mL]	MIC (P. aeruginosa ATCC 27853) [µg/mL]	MIC (S. aureus MTCC 6908) [µg/mL]	MIC (A. baumannii ATCC 1906) [µg/mL]	MIC (A. baumannii CCARM 12001) [µg/mL]	MIC (S. epidermidis S12-1) [µg/mL]	MIC (E. faecium NCIM 5421) [µg/mL]	MIC (S. aureus ATCC 43300) [µg/mL]	MIC (E. coli MTCC 1687) [µg/mL]	MIC (P. aeruginosa CCARM 2204) [µg/mL]	MIC (E. coli BAA 196) [µg/mL]	MIC [1] [µg/mL]	MIC (E. aerogenes M2-1) [µg/mL]	MIC (K. pneumonia ATCC 13883) [µg/mL]	MIC (E. faecium CCARM 5207) [µg/mL]	MIC (E. fecalis CCARM 5168) [µg/mL]	SMILES	activity in words (K. pneumonia ATCC 13883)
32 (≈ 60.1 µM)	> 16	> 16	> 16	> 16	1.5 (≈ 2.82 µM)	> 16	> 16	> 64	> 16	1 (≈ 1.88 µM)	16 (≈ 30 µM)	> 16	16 (≈ 30 µM)	0.13 (≈ 0.244 µM)	> 16	–	–	–	Cc1ncc([N+](=O)[O-])n1CC(O)CN1CCN(c2cc3c(cc2F)c(=O)c(C(=O)O)c2n3C(C)S2)CC1 (stereo not shown) [Compound 1]	–
> 4	> 16	–	0.25 (≈ 0.477 µM)	> 16	1 (≈ 1.91 µM)	1 (≈ 1.91 µM)	–	> 16	0.5 (≈ 0.953 µM)	1 (≈ 1.91 µM)	> 4	> 16	> 4	0.25 (≈ 0.477 µM)	> 16	0.12 (≈ 0.229 µM)	–	–	CC1Sc2c(C(=O)O)c(=O)c3cc(F)c(N4CCN(Cc5nc6ccc([N+](=O)[O-])cc6[nH]5)CC4)cc3n21 (stereo not shown) [Compound 18, 6-Fluoro-1-methyl-7-(4-((6-nitro-1H-benzo[d]imidazol-2-yl)methyl)piperazin-1-yl)-4-oxo-1H,4H-[1,3]thiazeto[3,2-a]quinoline-3-carboxylic acid]	active
> 16	–	–	–	–	> 64	–	–	> 16	> 16	32 (≈ 59.5 µM)	–	–	–	16 (≈ 29.8 µM)	–	–	> 16	> 16	CC1Sc2c(C(=O)O)c(=O)c3cc(F)c(N4CCN(CC(=O)Nc5ccc6nc(N)[nH]c6c5)CC4)cc3n21 (stereo not shown) [Compound 19, 7-(4-(2-((2-Amino-1H-benzo[d]imidazol-6-yl)-amino)-2-oxoethyl)piperazin-1-yl)-6-fluoro-1-methyl-4-oxo-1H,4H-[1,3]thiazeto[3,2-a]quinoline-3-carboxylic acid]	–
> 16	> 16	> 16	16 (≈ 29.2 µM)	16 (≈ 29.2 µM)	0.25 (≈ 0.456 µM)	16 (≈ 29.2 µM)	> 16	> 16	0.25 (≈ 0.456 µM)	0.13 (≈ 0.237 µM)	8 (≈ 14.6 µM)	> 16	> 16	< 0.03	16 (≈ 29.2 µM)	0.5 (≈ 0.912 µM)	–	–	CC1Sc2c(C(=O)O)c(=O)c3cc(F)c(N4CCN(Cc5nc6cc(Cl)c(Cl)cc6[nH]5)CC4)cc3n21 (stereo not shown) [Compound 21, 7-(4-((5,6-Dichloro-1H-benzo[d]imidazol-2-yl)methyl)piperazin-1-yl)-6-fluoro-1-methyl-4-oxo-1H,4H-[1,3]thiazeto[3,2-a]quinoline-3-carboxylic acid]	active
